The CATMoS acute toxicity set (Mansouri et al. 2021)

Assay: GHS categories as the set defines them, by LD50: 1 up to 5, 2 up to 50, 3 up to 300, 4 up to 2000, 5 above 2000 mg/kg
Conditions: rat; in vivo; po
Excerpt: […]The data set underlying the modeling effort for this project was initially compiled by NICEATM and U.S. EPA’s CCTE. Briefly, LD50 data were collected from rat acute oral systemic toxicity tests, including limit tests, ranges/confidence intervals, and discrete LD50 values. The full data set included 21,200 LD50 entries for 15,688 substances. […] Data were reviewed to ensure that LD50 values with obvious errors in the extracted data such as unit conversion errors (e.g., comma and decimal separator misplacements) were either fixed or removed. After this review, 16,209 LD50 values remained. Many of the chemicals represented had multiple LD50 entries, requiring that a single representative value per Chemical Abstracts Service Registry Number (CASRN) identifier be defined to facilitate modeling efforts. Based on ATWG feedback and to define the representative LD50 as a protective value while accounting for the distribution across multiple LD50s, the median of the lowest quartile was computed using only discrete LD50 values (omitting limit test data and range and confidence interval data). A detailed summary of the data compilation is available online on the NICEATM webpage dedicated to the collaborative modeling project (NTP 2020).
[…][…] For categorical designations, limit test and range/confidence interval LD50 data were integrated wherever possible. As such, the number of chemicals with end point values/calls varies across the modeling end points (Table 3) based on whether chemicals had representative LD50 values and/or other data. If a chemical had both, the representative value was used to determine categorical calls rather than limit test data. Some data were useable only for certain end points and categories depending on the thresholds. For example, ranges that spanned multiple hazard categories were considered only for the binary (very toxic/nontoxic) end points and omitted from rendering a determination for hazard category assignment.
[…]The final data set comprising 11,992 chemicals was split into training and evaluation sets […], respectively. This process was performed semirandomly by ordering chemicals based on the five end points (categorical and continuous LD50 values) and partitioning every fourth record into the evaluation set accordingly. This approach was taken to ensure an equivalent distribution of the LD50 values and the different hazard categories between the training and the evaluation sets without supervised sampling of the chemicals based on structures (Figure 1A). The sources of the chemical structures were also kept equivalent between the two sets, with chemical structures obtained from DSSTox, being the highest quality, representing over 75% of each set (Figure 1B).

Row | Structure (SMILES) | GHS category
1 | COc1ccc(C2NC(=O)CCS2)cc1 (centres undefined) | 5
2 | COC(=O)Nc1nc2cc(Sc3ccccc3)ccc2[nH]1 | 5
3 | CNC(=O)Oc1c(C(C)(C)C)cc(C)cc1C(C)(C)C | 5
4 | O=C1NC(=O)C(c2ccc(O)cc2)N1 (centres undefined) | 5
5 | CCOCC1COC(Cn2cncn2)(c2cc3ccccc3o2)O1 (centres undefined) | 4
6 | CCN(C)CCC(C#N)(CC=C(C)C)c1cccc2ccccc12 (centres undefined) | 4
7 | CC(=O)N(C)C(=O)Oc1cccc2c1OC1(CCCCC1)O2 | 4
8 | CC1=C(NC(=O)O)/C(=N/C(=O)CN)C=CC1(NC(=O)O)c1cccc(C2=CC=C/C(=N\C(=O)CN)C2C)c1 (centres undefined) | 5
9 | Cc1nnc(SCCCSc2nnnn2C)o1 | 4
10 | Cc1cc(C2CC2)nc(Nc2ccccc2)n1 | 5
11 | COCC(=O)O[C@]1(CCN(C)CCCc2nc3ccccc3[nH]2)CCc2cc(F)ccc2[C@@H]1C(C)C | 4
12 | CCOc1ccc(C(C)(C)COCc2cccc(Oc3ccccc3)c2)cc1 | 5
13 | CCOC(C)C(C=NNC(N)=S)=NNC(N)=S (centres undefined) | 5
14 | O=C(c1ccc(Cl)c(Cl)c1)c1ccccc1-c1ncc[nH]1 | 4
15 | Nc1ccc2cc(S(=O)(=O)O)c(/N=N/c3ccc(-c4ccc(/N=N/c5ccc(O)c(C(=O)O)c5)cc4)cc3)c(O)c2c1 | 5
16 | CC(C)COP(=O)(OCC(C)C)OCC(C)C | 5
17 | CCOc1nc2cccc(C(=O)O)c2n1Cc1ccc(-c2ccccc2-c2nnn[nH]2)cc1 | 5
18 | COc1ccc2c(c1)CCN(c1ccccc1)C2c1ccccc1[N+](=O)[O-] (centres undefined) | 4
19 | CCCCC(O)CCO (centres undefined) | 5
20 | CC1(C)O[C@@H]2C[C@H]3[C@@H]4C[C@H](F)C5=CC(=O)C=C[C@]5(C)[C@@]4(F)[C@@H](O)C[C@]3(C)[C@]2(C(=O)CO)O1 | 5
21 | Cc1ccc(C(=O)NS(=O)(=O)c2ccc(N)cc2)cc1C | 5
22 | Nc1c(I)c(C(=O)O)c(I)c(C(=O)O)c1I | 5

Row | Structure (SMILES) | GHS category
23 | COc1ccc(Cl)cc1NC(=O)CC(C)=O | 5
24 | CCCCCCCNC(=O)c1cnc2cccc(C)n2c1=O | 3
25 | C[N@+]1(CCNP(=S)(NCC[N@@+]2(C)Cc3c(ccc4c3OCO4)[C@@H]3[C@H]2c2cc4c(cc2C[C@@H]3O)OCO4)NCC[N@@+]2(C)Cc3c(ccc4c3OCO4)[C@@H]3[C@H]2c2cc4c(cc2C[C@@H]3O)OCO4)Cc2c(ccc3c2OCO3)[C@@H]2[C@H]1c1cc3c(cc1C[C@@H]2O)OCO3 | 4
26 | O=C(O)Cc1ccc(OCC(O)CO)c(Cl)c1 (centres undefined) | 5
27 | O=S(=O)(O)c1ccc(Cl)cc1 | 4
28 | CC(C)C(=O)OOC(C)(C)C | 5
29 | C/C=C(\C)C(=O)OCCc1ccccc1 | 5
30 | CCCCN1CCCC1=O | 4
31 | N#CCC(=O)OCC(COC(=O)CC#N)(COC(=O)CC#N)COC(=O)CC#N | 5
32 | NCCCC[C@H](OP(=O)(O)CCCCc1ccccc1)C(=O)N1CCC[C@H]1C(=O)O | 5
33 | CS(=O)(=O)c1ccc(C(=O)C2C(=O)CCCC2=O)c([N+](=O)[O-])c1 | 5
34 | Nc1ncnc2c1ncn2[C@@H]1O[C@H](COP(=O)(O)OP(=O)(O)OP(=O)(O)O)[C@@H](O)[C@H]1O | 5
35 | CN(C)CC(=O)N/N=C/c1c(Cl)nc2n1CCS2 | 4
36 | COc1cc2c(cc1OC)C(c1ccccc1F)N(c1ccccc1)CC2 (centres undefined) | 4
37 | CN(C(=O)COc1nc2ccccc2s1)c1ccccc1 | 5
38 | COc1ccc(C(=O)N2CCN(c3ccc4c(c3)CCC(=O)N4)CC2)cc1OC | 5
39 | CNc1cnn(-c2cccc(C(F)(F)F)c2)c(=O)c1Cl | 5
40 | CCCCCCCCC(C)C | 5
41 | O=C(O)C(=O)C(O)C(O)C(O)CO (centres undefined) | 5
42 | CCOc1ccccc1C(=N)N | 4
43 | CC1OC(Cn2cncn2)(c2cc3ccccc3o2)OC1C (centres undefined) | 4
44 | Clc1ccc(CN2CCN=C2c2ccccc2)cc1 | 4
